In one series the test system is scWAT collagen. Briefly: Picrosirius red staining and collagen birefringence quantification of scWAT. The format is in vivo, mouse. An excerpt:
Intact scWAT and pgWAT depots were excised from BL6 and HET3 mice, fixed in 10% buffered formalin overnight at room temperature and embedded in paraffin. Paraffin embedded tissues were sectioned 7 μm thick. Tissue sections were deparaffinized with HistoChoice Clearing Agent (Sigma-Aldrich Cat #H2779) and hydrated in decreasing concentrations of EtOH (100%, 95% 70%, 30%, 0%). Tissues were stained in picrosirius red stain (Electron Microscopy Sciences Cat #26357) for 1 hr, washed in two changes of acidified water (5 seconds each), dehydrated in three changes of 100% EtOH, cleared in histo-grade Xylenes for 5 minutes and cover slipped using Permount mounting media (Electron Microscopy Sciences Cat #17986-01). Five representative images per tissue were captured using both brightfield and circularly polarized light to gauge collagen distribution. Total collagen was measured by first quantifying the area comprised by picrosirius red staining in the field of view using brightfield microscopy. This was then divided by the area comprised exclusively of polarized collagen fibers. […] To differentiate the relative contribution of collagen fiber thicknesses, methods were adapted from (Rich & Whittaker, 2005) for use in Fiji (Schindelin et al., 2012). Hue values used for this analysis were as follows: green (52-128), yellow (39-51), orange (10-38), and red (0-9, 230-255). Saturation was not accounted for, and brightness was thresholded at 35-255 to prevent noise from being included in pixel counts. See FIG. 11 for a schematic of this method.

The test system of series [1] is diabetic NONcNZO10/LtJ mice. Conditions: 14 ppm diet-fed (Reifsnyder, Doty, & Harrison, 2014); cited from earlier work.
The test system of another series is scWAT. Briefly: Hematoxylin staining of scWAT sections. The format is in vivo, mouse. The text has this: Intact inguinal scWAT (ing-scWAT), axillary scWAT (ax-scWAT), and perigonadal WAT (pgWAT) depots were excised from BL6 and HET3 mice, fixed in 10% buffered formalin overnight at room temperature and embedded in paraffin. Paraffin embedded tissues were sectioned 7 μm thick. Tissue sections were deparaffinized with HistoChoice Clearing Agent and hydrated in decreasing concentrations of EtOH (100%, 95% 70%, 30%, 0%). Tissues were stained in Mayer's Hematoxylin Solution (Sigma-Aldrich Cat #MHS16) or Mayer's Hemalum Solution (Sigma-Aldrich Cat #109249) and a drop of mounting fluid was applied, and tissues were cover slipped, sealed, and imaged. Three representative images were captured per tissue per animal and cell perimeter and area was measured in Fiji (Schindelin et al., 2012).

For series [2] the following is noted: Harrison et al., 2009; cited from earlier work.
For series [3], the system named is PSD95 and PGP9.5 protein expression in scWAT. Briefly: Western blot of scWAT after daily intra-adipose CL316 243. The format is in vivo. Conditions: daily intra-adipose administration for 7 days.

For the compound `CO[C@H]1C[C@@H]2CC[C@@H](C)[C@@](O)(O2)C(=O)C(=O)N2CCCC[C@H]2C(=O)O[C@H]([C@H](C)C[C@@H]2CC[C@@H](O)[C@H](OC)C2)CC(=O)[C@H](C)/C=C(\C)[C@@H](O)[C@@H](OC)C(=O)[C@H](C)C[C@H](C)/C=C/C=C/C=C/1C` [rapamycin], the “total increase in collagen between treatment groups” value in the series with scWAT collagen (early-intervention) is reported as “not statistically significant”. Further, the “collagen deposition versus vehicle group” value in the series with scWAT collagen (early-intervention group) was “greater”. Besides, the “animals exhibiting severely fibrotic tissue” value in the series on scWAT collagen (early-intervention, females) was 3 out of 11. Besides, in the series with scWAT collagen (early-intervention, males), the “animals exhibiting severely fibrotic tissue” value is recorded as 3 out of 8; the “green collagen fibers (birefringence)” value was “decreased”; the “orange collagen fibers (birefringence)” value is reported as “increased”; the “thick collagen fibers (orange+red), share of thin:thick ratio” value is recorded as 75%. Also, in the series with scWAT collagen (early-intervention, males), the “thin collagen fibers, share of thin:thick ratio” value was determined as 25%. In addition, in the series on scWAT collagen (late-intervention), the birefringence patterns entry is on record as “did not vary”. Besides, the total collagen entry with scWAT collagen (late-intervention, females) was “no difference”. Further, in the series with scWAT collagen (late-intervention, males, failed to meet statistical significance), the total collagen result was “possible increase”. Moreover, the “adipose tissue inflammation and fibrosis” value with scWAT collagen (overall statement) is “worsened”. Also, the scWAT fibrosis entry in the series with scWAT collagen (treatment started early in life) is “increased”. The pancreatic fibrosis entry in series [1] is listed as “caused pancreatic fibrosis”. In addition, in the series on scWAT (early-intervention group (started ~30 weeks)), the “crown-like structures, lipofuscin and immune cell infiltration in scWAT” value is recorded as “increased”. Further, in the series with scWAT (late-intervention group (started ~72 weeks)), the “crown-like structures, lipofuscin and immune cell infiltration in scWAT” value is “not observed”. Also, the “circulating rapamycin, males versus females” value in series [2] is on record as “equivalent”.
`C[C@H](Cc1ccc2c(c1)OC(C(=O)[O-])(C(=O)[O-])O2)NC[C@H](O)c1cccc(Cl)c1.[Na+].[Na+]` [CL316 243]: in series [3], the “PGP9.5 protein expression in scWAT” value is “upward trend” and the “PSD95 expression in scWAT” value is reported as “increased”.

The values are drawn from patent US20260210976A1, “METHOD TO DETECT AND TREAT PERIPHERAL NEUROPATHY” (Ohio State Innovation Foundation, priority 2022, published 2026).
